The values that follow come from US20230117034A1, “PYRAZOLOTRIAZINES” (Bayer Aktiengesellschaft, priority 2019, published 2023).

The structures appear in SMILES notation.

One assay addresses CDK12/CycK (Homo sapiens, UniProt Q9NYV4). Put plainly: CDK12/CycK high ATP kinase assay (TR-FRET, 2 mM ATP). It is filed as biochemical. The settings on record: 2 mM ATP (high ATP); median; read-out: CDK12/CyclinK, 2 mM ATP (high ATP), IC50-[mol/l] (median). A digest of the protocol:
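Read-out is TR-FRET (Eu-anti-rabbit IgG, anti-phospho-c-Myc Ser62 antibody, streptavidin-XL665) after EDTA stop. Reaction ran 60 min at 22 °C using 1 µM biotin-peptide and high ATP (2 mM) with roughly 0.75 nM recombinant CDK12/CycK, after 15 min compound pre-binding; normalised emission ratios yield IC50.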
In general terms: Time-resolved FRET reads energy transfer from a long-lived donor to a nearby acceptor.

In assay [1] the test system is MDA-MB-231, human breast cancer cells. Description: Proliferation assay MDA-MB-231 (crystal violet, 4 days). The settings on record: Homo sapiens, MDA-MB-231, 96 h, MDA-MB-231 cells, median, read-out: Prolif-MDA MB-231, IC50-[mol/l] (median). It is filed as cell-based. A digest of the protocol: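 Crystal violet proliferation read-out after 4 days of compound exposure (0.01-10 µmol/L; solvent 0.1% DMSO). Extinction at 595 nm, set between zero-point (0%) and vehicle (100%), fitted with 4 parameters to give IC50.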

The test system of assay [2] is BRCA1 mRNA expression in MDA-MB-231 cells. Put plainly: qRT-PCR assay: BRCA1 mRNA expression in MDA-MB-231. It is filed as cell-based, human. The settings on record: Homo sapiens, MDA-MB-231, Inhibition of BRCA1 mRNA expression in MDA-MB-231 cells; median; read-out: RTqPCR-MDA-MB-231, IC50, BRCA1 (median). A digest of the protocol: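 Human breast cancer cells, 200,000/well, were treated with test agents for 24 h without interruption after a 24 h settling period. Gene expression came from qPCR on cDNA made from 600 ng RNA, relative to GAPDH.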
In general terms: Quantitative PCR measures a nucleic acid by following its amplification.

Chain of CDK12/CycK (Q9NYV4 with tags, fused parts or gaps): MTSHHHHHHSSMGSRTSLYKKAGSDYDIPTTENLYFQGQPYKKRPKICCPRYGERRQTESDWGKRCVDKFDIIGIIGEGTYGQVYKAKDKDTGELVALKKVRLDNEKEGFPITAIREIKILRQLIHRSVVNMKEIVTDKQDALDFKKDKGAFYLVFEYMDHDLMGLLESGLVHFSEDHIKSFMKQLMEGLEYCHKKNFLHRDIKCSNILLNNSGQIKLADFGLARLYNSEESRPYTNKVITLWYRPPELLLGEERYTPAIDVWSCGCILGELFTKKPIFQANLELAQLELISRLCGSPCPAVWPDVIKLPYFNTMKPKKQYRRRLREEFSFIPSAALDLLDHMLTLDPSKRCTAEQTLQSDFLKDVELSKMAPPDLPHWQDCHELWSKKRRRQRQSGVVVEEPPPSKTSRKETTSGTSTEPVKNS
Chain of CDK12/CycK (O75909 1-300 partner limits assumed): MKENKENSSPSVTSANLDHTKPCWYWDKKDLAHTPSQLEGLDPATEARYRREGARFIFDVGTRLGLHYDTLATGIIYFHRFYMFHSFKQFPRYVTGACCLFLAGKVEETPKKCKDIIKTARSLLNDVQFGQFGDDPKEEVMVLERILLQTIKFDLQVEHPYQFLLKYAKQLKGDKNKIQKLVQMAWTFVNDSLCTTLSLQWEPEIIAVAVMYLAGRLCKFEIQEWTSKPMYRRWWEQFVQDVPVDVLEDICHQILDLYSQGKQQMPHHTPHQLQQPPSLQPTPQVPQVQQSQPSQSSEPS

`Brc1cnn2c(NCc3nc4ccccc4[nH]3)nc(N3C[C@H]4C[C@@H]3CN4)nc12` [Example 269, N-[(1H-benzimidazol-2-yl)methyl]-8-bromo-2-[(1R,4R)-2,5-diazabicyclo[2.2.1]heptan-2-yl]pyrazolo[1,5-a][1,3,5]triazin-4-amine]: the IC50 on CDK12/CycK came to 8610 nM; in assay [1], 29.3 nM; in assay [2], 8.39 nM.

For the compound `CN(CC(C)(C)O)c1nc(NCc2nc3cc(F)c(Cl)cc3[nH]2)n2ncc(C3CC3)c2n1` [Example 317, 1-[(4-{[(6-chloro-5-fluoro-1H-benzimidazol-2-yl)methyl]amino}-8-cyclopropylpyrazolo[1,5-a][1,3,5]triazin-2-yl)(methyl)amino]-2-methylpropan-2-ol], the IC50 was 979 nM at CDK12/CycK, 5.21 nM in assay [1] and 6.9 nM in assay [2].

`FC(F)(F)Cc1cnn2c(NCc3nc4cc(Cl)ccc4[nH]3)nc(N3CCOCC3)nc12` [Example 299, N-[(5-chloro-1H-benzimidazol-2-yl)methyl]-2-(morpholin-4-yl)-8-(2,2,2-trifluoroethyl)pyrazolo[1,5-a][1,3,5]triazin-4-amine]: the figures for the IC50 (on CDK12/CycK; in assay [1]; in assay [2]) were 6390 nM, 8.53 nM and 8.86 nM, respectively.

As to `NC1CCN(c2nc(NCc3nc4ccccc4[nH]3)n3ncc(Br)c3n2)CC1` [Example 256, 2-(4-aminopiperidin-1-yl)-N-[(1H-benzimidazol-2-yl)methyl]-8-bromopyrazolo[1,5-a][1,3,5]triazin-4-amine], the IC50 on CDK12/CycK is over 20000 nM; in assay [1], 12.6 nM; in assay [2] it was 6.46 nM.

For `FC(F)(F)c1cnn2c(NCc3nc4cc(Cl)ccc4[nH]3)nc(N3CCOCC3)nc12` [Example 275, N-[(5-chloro-1H-benzimidazol-2-yl)methyl]-2-(morpholin-4-yl)-8-(trifluoromethyl)pyrazolo[1,5-a][1,3,5]triazin-4-amine], the IC50 on CDK12/CycK was 97.3 nM; in assay [1] it was 3.87 nM; in assay [2], 2.01 nM.

`Brc1cnn2c(NCc3nc4ccccc4[nH]3)nc(N3C[C@H]4CC[C@@H]3CN4)nc12` (single isomer, unassigned) [Example 316, N-[(1H-benzimidazol-2-yl)methyl]-8-bromo-2-{[1R or S-(1R*4R*)]-2,5-diazabicyclo[2.2.2]octan-2-yl}pyrazolo[1,5-a][1,3,5]triazin-4-amine]: the IC50 is 2920 nM on CDK12/CycK, 22.8 nM in assay [1] and 12.4 nM in assay [2].

With `CN1CCN(c2nc(NCc3nc4ccccc4[nH]3)n3ncc(C(F)(F)F)c3n2)CC1` [Example 297, N-[(1H-benzimidazol-2-yl)methyl]-2-(4-methylpiperazin-1-yl)-8-(trifluoromethyl)pyrazolo[1,5-a][1,3,5]triazin-4-amine], the IC50 on CDK12/CycK is 17400 nM; in assay [1], 77.7 nM; in assay [2], 51.5 nM.

With `Fc1ccc2[nH]c(CNc3nc(N4C[C@H]5CC[C@@H](C4)N5)nc4c(C5CC5)cnn34)nc2c1F` [Example 294, 8-cyclopropyl-2-[(1R,5S)-3,8-diazabicyclo[3.2.1]octan-3-yl]-N-[(4,5-difluoro-1H-benzimidazol-2-yl)methyl]pyrazolo[1,5-a][1,3,5]triazin-4-amine], the IC50 at CDK12/CycK came out at 1860 nM; in assay [1] it was 3.37 nM; in assay [2] it was 1.16 nM.

On to `c1ccc2[nH]c(CNc3nc(N4CCNCC4)nc4c(C5CC5)cnn34)nc2c1` [Example 247, N-[(1H-benzimidazol-2-yl)methyl]-8-cyclopropyl-2-(piperazin-1-yl)pyrazolo[1,5-a][1,3,5]triazin-4-amine], for which the IC50 at CDK12/CycK came out at 14700 nM; in assay [1], 50.7 nM; in assay [2] it was 5.55 nM.

Take `Fc1cc2nc(CNc3nc(N4CCOCC4)nc4c(C5CC5)cnn34)[nH]c2cc1Cl` [Example 307, N-[(6-chloro-5-fluoro-1H-benzimidazol-2-yl)methyl]-8-cyclopropyl-2-(morpholin-4-yl)pyrazolo[1,5-a][1,3,5]triazin-4-amine]: the IC50 on CDK12/CycK stood at 1570 nM; in assay [1] it was 5.05 nM; in assay [2], 8.07 nM.

For the compound `c1ccc2[nH]c(CNc3nc(N4CCOCC4)nc4c(C5CCC5)cnn34)nc2c1` [Example 263, N-[(1H-benzimidazol-2-yl)methyl]-8-cyclobutyl-2-(morpholin-4-yl)pyrazolo[1,5-a][1,3,5]triazin-4-amine], the IC50 at CDK12/CycK worked out at 6890 nM; in assay [1], 73.2 nM; in assay [2] it was 28.8 nM.

In the case of `Fc1ccc2[nH]c(CNc3nc(N4CCOCC4)nc4c(CC(F)(F)F)cnn34)nc2c1` [Example 308, N-[(5-fluoro-1H-benzimidazol-2-yl)methyl]-2-(morpholin-4-yl)-8-(2,2,2-trifluoroethyl)pyrazolo[1,5-a][1,3,5]triazin-4-amine], the IC50 on CDK12/CycK stood at 6400 nM; in assay [1] it was 27.9 nM; in assay [2], 5.46 nM.

`Clc1cc2nc(CNc3nc(N4CCOCC4)nc4c(C5CC5)cnn34)[nH]c2cc1Cl` [Example 301, 8-cyclopropyl-N-[(5,6-dichloro-1H-benzimidazol-2-yl)methyl]-2-(morpholin-4-yl)pyrazolo[1,5-a][1,3,5]triazin-4-amine]: the IC50 on CDK12/CycK turned out to be 1180 nM; in assay [1], 7.75 nM; in assay [2] it was 6.73 nM.

As to `Brc1cnn2c(NCc3nnc(-c4ccccc4)[nH]3)nc(N3CCOCC3)nc12` [Example 24, 8-bromo-2-(morpholin-4-yl)-N-[(5-phenyl-4H-1,2,4-triazol-3-yl)methyl]pyrazolo[1,5-a][1,3,5]triazin-4-amine], the IC50 on CDK12/CycK stood at 4390 nM; in assay [1], 53.3 nM; in assay [2], 10 nM.

Turning to `Fc1ccc2[nH]c(CNc3nc(N4CCOCC4)nc4c(C(F)(F)F)cnn34)nc2c1` [Example 273, N-[(5-fluoro-1H-benzimidazol-2-yl)methyl]-2-(morpholin-4-yl)-8-(trifluoromethyl)pyrazolo[1,5-a][1,3,5]triazin-4-amine], the IC50 on CDK12/CycK came to 983 nM; in assay [1] it was 6 nM; in assay [2] it was 1.95 nM.

On to `CN[C@H]1CCN(c2nc(NCc3nc4ccccc4[nH]3)n3ncc(Br)c3n2)C1` [Example 252, N-[(1H-benzimidazol-2-yl)methyl]-8-bromo-2-[(3S)-3-(methylamino)pyrrolidin-1-yl]pyrazolo[1,5-a][1,3,5]triazin-4-amine], for which the IC50 is over 20000 nM on CDK12/CycK, 30.6 nM in assay [1] and 10.2 nM in assay [2].

Regarding `Brc1cnn2c(NCc3nc4ccccc4[nH]3)nc(N3C[C@@H]4C[C@H]3CN4)nc12` [Example 270, N-[(1H-benzimidazol-2-yl)methyl]-8-bromo-2-[(1S,4S)-2,5-diazabicyclo[2.2.1]heptan-2-yl]pyrazolo[1,5-a][1,3,5]triazin-4-amine], the IC50 at CDK12/CycK is 13700 nM; in assay [1] it was 22.5 nM; in assay [2] it was 6.41 nM.

Take `Brc1cnn2c(NCc3nc4ccncc4[nH]3)nc(N3CCOCC3)nc12` [Example 22, 8-bromo-N-[(3H-imidazo[4,5-c]pyridin-2-yl)methyl]-2-(morpholin-4-yl)pyrazolo[1,5-a][1,3,5]triazin-4-amine]: the IC50 on CDK12/CycK came out at 4000 nM; in assay [1], 593 nM; in assay [2] it was 131 nM.

Take `CC1(N)CCN(c2nc(NCc3nc4ccccc4[nH]3)n3ncc(Br)c3n2)CC1` [Example 290, 2-(4-amino-4-methylpiperidin-1-yl)-N-[(1H-benzimidazol-2-yl)methyl]-8-bromopyrazolo[1,5-a][1,3,5]triazin-4-amine]: the IC50 was over 19800 nM at CDK12/CycK, 64.9 nM in assay [1] and 17.6 nM in assay [2].

Take `CN1CCN(c2nc(NCc3nc4cc(Cl)ccc4[nH]3)n3ncc(C(F)(F)F)c3n2)CC1` [Example 298, N-[(5-chloro-1H-benzimidazol-2-yl)methyl]-2-(4-methylpiperazin-1-yl)-8-(trifluoromethyl)pyrazolo[1,5-a][1,3,5]triazin-4-amine]: the IC50 on CDK12/CycK came out at 8310 nM; in assay [1] it was 10.5 nM; in assay [2], 4.12 nM.

With `CN1CCN(c2nc(NCc3nc4ccccc4[nH]3)n3ncc(C4CC4)c3n2)CC1` [Example 246, N-[(1H-benzimidazol-2-yl)methyl]-8-cyclopropyl-2-(4-methylpiperazin-1-yl)pyrazolo[1,5-a][1,3,5]triazin-4-amine], the IC50 was over 12900 nM at CDK12/CycK, 121 nM in assay [1] and 10.3 nM in assay [2].

`Fc1ccc2[nH]c(CNc3nc(N4CCOCC4)nc4c(C5CC5(F)F)cnn34)nc2c1` (racemic) [Example 286, 8-[(1RS)-2,2-difluorocyclopropyl]-N-[(5-fluoro-1H-benzimidazol-2-yl)methyl]-2-(morpholin-4-yl)pyrazolo[1,5-a][1,3,5]triazin-4-amine]: the figures for the IC50 (at CDK12/CycK; in assay [1]; in assay [2]) were 11300 nM, 20 nM and 10.6 nM, respectively.
